pEC50, pIC50: −log10 of the molar value.
What was measured:
[1] = molecular target: Human-GLP-1 receptor (Homo sapiens (Human), UniProt P43220); assay: In vitro cell activity assay (cAMP, HEK293 GLP-1 cells); assay type: cell-based; details: cAMP detection
Description: Experimental Example 1: In Vitro Cell Activity Assay
The host cell HEK293 for GLP-1 was constructed by WuXi AppTec (Shanghai) Co., Ltd.
cAMP Detection Kit, Cisbio (Cat #62AM4PEJ); 1M HEPES, Invitrogen (Cat #15630-106); 1×HBSS, Invitrogen (Cat #14025); BSA, Sigma (Cat #B2064); IBMX, Sigma (Cat #I5879); Exenatide, Hao Yuan (HY-13443A).
The compounds were prepared into a working solution with a concentration of 30 μM using DMSO. In this assay, each sample was used in an amount of 5 μL.
• 24.5 mL of Hanks Buffer Saline Solution (HBSS), final concentration: lx; • 125 μL of HEPES 1M, final concentration: 5 mM; • 333 μL of 7.5% BSA Solution, final concentration: 0.1%; • 25 μL of IBMX 500 mmol/L, final concentration: 0.5 mmol/L.
Preparation of cAMP assay reagent: 250 μL of cAMP-D2 and 250 μL of anti-cAMP cryptate reagent were added to 4 mL of lysis buffer and mixed gently.
The compound to be tested was diluted 3-fold at 10 points with a starting concentration of 30 μM, and the dilution was completed using Bravo.
Exenatide, used as a control compound, was diluted 3-fold at 10 points with a starting concentration of 500 nM, and the dilution was completed using Bravo. […]
• 1) A GLP-1 cell cryopreservation tube was rapidly thawed in a 37° C. water bath. • 2) The cell suspension was transferred to a 15 mL Transfer centrifuge tube and gently rinsed with 10 mL of HBSS. • 3) The centrifuge tube was centrifuged at 1000 rpm for 1 minute at room temperature. • 4) The supernatant was discarded. • 5) The cells at the bottom were gently dispersed, then rinsed with 10 mL of HBSS, centrifuged to sedimentation, and finally resuspended in the experimental buffer. • 6) The cell density and activity were measured using Vi-cell. • 7) The concentration of GLP-1 cells was diluted to 2.0*105/mL with the experimental buffer. • 8) […] of the diluted cell suspension was transferred to the OptiPlate-384 plate. • 9) The plate was incubated at room temperature for 30 minutes. […]
TopSeal-A was removed and the result was read in EnVision.

[2] = test system: canine hepatocytes; assay: HMS CLint (liver) hepatocyte metabolic stability, dog; assay type: in vitro ADME
Description: (§1) Experimental purpose: to test the metabolic stability of the test sample in human and rat liver cells.
(§2) • (1) test compound (10 mM), reference substance: 7-ethoxycoumarin (30 mM), 7-hydroxycoumarin (reference substance, 30 mM); • mouse hepatocytes with cell viability of 73.8%, supplier Cat No.: BioreclamationlVTM005052; • rat hepatocytes with cell viability of 78.3%, supplier Cat No.: BioreclamationlVTM00005-T; • canine hepatocytes with cell viability of 80.2%, supplier Cat No.: BioreclamationlVTM00205; • monkey liver cells with cell viability of 80.9%, supplier Cat No.: RILD HP—SXH-02M; • human hepatocytes with cell viability of 94.6%, supplier Cat No.: Bioreclamation IVTX008001. • (2) Buffer system:
(§3) Thawing medium: Williams' medium E containing 5% fetal bovine serum, 30% Percoll solution, and other auxiliary materials.
(§4) Incubation medium: Williams' medium E (without phenol red) containing 2 mM L-glutamine and 25 mM 4-(2-hydroxyethyl)-1-piperazineethanesulfonic acid.
(§5) Termination solution: acetonitrile containing 200 ng/mL tolbutamide and labetalol as internal standard. […]
(§6) The residual rates of the test compound and the control compound were determined using the following formula: […]
(§7) The elimination rate constant (k) of the test compound and the control compound in hepatocytes was calculated by plotting the logarithm of the residual rate against time. […]

[3] = In vivo PK parameter testing in cynomolgus monkeys; parameters: species or system cynomolgus monkey; details: male cynomolgus monkeys
Description: (§8) Male SD rats and male cynomolgus monkeys were used as test animals, and the plasma concentration of the compound was determined and the pharmacokinetic behavior was evaluated after a single oral administration.
Two groups of healthy male cynomolgus monkeys (fasted) were administered by intravenous injection and oral gavage, each group with 2 monkeys. The vehicle was a 20% hydroxypropyl-β-cyclodextrin aqueous solution. The compound to be tested 002 was mixed with the vehicle, then vortexed, and sonicated to prepare clear solutions of 1.0 mg/mL and 2.0 mg/mL. The intravenous injection dose was 1.0 mg/kg, and the oral gavage dose was 2.0 mg/kg. The compound to be tested 003 was mixed with the vehicle, then vortexed, and sonicated to prepare clear solutions of 0.25 mg/mL and 10.0 mg/mL. The intravenous injection dose was 0.5 mg/kg, and the oral gavage dose was 10.0 mg/kg. After administration, the whole blood was collected at the time points of 0.083 hours, 0.25 hours, 0.5 hours, 1.0 hour, 2.0 hours, 4.0 hours, 8.0 hours, 12.0 hours, and 24.0 hours. Plasma was prepared from the whole blood and analyzed for drug concentration by LC-MS/MS. Parameter meaning: Cmax is the maximum plasma concentration; AUC is the exposure; T1/2 is the half-life; Vd is the apparent volume of distribution; Cl is the clearance rate; F % is the oral bioavailability.

[4] = test system: human hepatocytes; assay: HMS CLint (liver) hepatocyte metabolic stability, human; assay type: in vitro ADME
Description: as §1, §2, §3, §4, §5, §6, §7

[5] = test system: monkey liver cells; assay: HMS CLint (liver) hepatocyte metabolic stability, cynomolgus monkey; assay type: in vitro ADME; details: cynomolgus monkey hepatocytes
Description: as §1, §2, §3, §4, §5, §6, §7

[6] = In vivo PK parameter testing in rats; parameters: species or system SD rat; details: male SD rats
Description: as §8
Two groups of healthy rats (fasted) were administered by intravenous injection (IV) and oral gavage (PO), each group with 2 rats. The vehicle was a mixture of 20% PEG400, 10% solutol, and 70% water. After mixing the compound to be tested with the vehicle, the mixture was vortexed and sonicated to prepare clear solutions of 0.2 mg/mL and 0.5 mg/mL. The intravenous injection dose for rats was 1.0 mg/kg, and the oral gavage dose was 5.0 mg/kg. After administration, the whole blood was collected at the time points of 0.083 hours, 0.25 hours, 0.5 hours, 1.0 hour, 2.0 hours, 4.0 hours, 8.0 hours, 12.0 hours, and 24.0 hours. Plasma was prepared from the whole blood and analyzed for drug concentration by LC-MS/MS.

[7] = test system: rat hepatocytes; assay: HMS CLint (liver) hepatocyte metabolic stability, rat; assay type: in vitro ADME
Description: as §1, §2, §3, §4, §5, §6, §7

[8] = molecular target: CYP2C19 (Homo sapiens (Human), UniProt P33261); assay: Time-dependent inhibition (TDI) of CYP2C19 in human liver microsomes; assay type: in vitro ADME
Description: The time-dependent inhibitory effect of the test compound on the activity of human liver microsomal cytochrome P450 isoenzyme CYP2C19 was determined.
The experiment was divided into two groups. In the first group, human liver microsomes (HLM) were used as the incubation system. The test articles with a series of concentrations were added to the incubation system, followed by the addition of a coenzyme factor (NADPH) solution. The preincubation was carried out at 37° C. for 30 minutes. After preincubation, a probe substrate solution was added thereto. After a certain period of incubation, the reaction was terminated. The amount of probe substrate metabolites generated in the incubation solution was determined, and the enzyme activity was calculated. In the second group, human liver microsomes (HLM) were used as the incubation system. The test articles with a series of concentrations were added to the incubation system, followed by the addition of potassium phosphate buffer. The preincubation was carried out at 37° C. for 30 minutes. After preincubation, a mixture of NADPH and the probe substrate was added thereto. After a certain period of incubation, the reaction was terminated. The amount of probe substrate metabolites generated in the incubation solution was determined, and the enzyme activity was calculated. […]
Then, 147.5 μL of human liver microsomal working solution was added to the reaction plate, and the reaction plate was placed on ice for use; at this time, 2.50 μL of the test compound (N=1) and the working solution (N=2) of the positive control inhibitor at various concentrations were added to the corresponding wells, and the corresponding organic solvent was added to the group without inhibitors (test compound or positive inhibitor); the reaction plate was incubated for 10 minutes at 37° C., and then 50.0 μL of NADPH solution or potassium phosphate buffer was added to reaction wells of the first or second group, respectively, to start the reaction; the reaction plate was pre-incubated at 37° C. for 30 minutes; 50.0 μL of the substrate solution or a mixture of NADPH and the substrate was added to the reaction wells of the first or second group, respectively, to start the reaction. 20 minutes later, 250 μL of precooled acetonitrile solution (containing internal standards of 200 ng/mL tolbutamide and labetalol) was added to terminate the reaction; the reaction plate was placed on a shaker and shaken for 10 minutes to mix uniformly; then, the plate was centrifuged for 20 minutes at 4° C. and 4000 rpm; 200 μL of the supernatant was added to 200 μL of water to dilute the sample; the plate was finally sealed and shaken for 10 minutes to mix uniformly; the sample was then analyzed by LC/MS/MS.

[9] = 30 min preincubation with NADPH
[10] = 30 min preincubation without NADPH

Sequence of CYP2C19 (P33261 whole entry): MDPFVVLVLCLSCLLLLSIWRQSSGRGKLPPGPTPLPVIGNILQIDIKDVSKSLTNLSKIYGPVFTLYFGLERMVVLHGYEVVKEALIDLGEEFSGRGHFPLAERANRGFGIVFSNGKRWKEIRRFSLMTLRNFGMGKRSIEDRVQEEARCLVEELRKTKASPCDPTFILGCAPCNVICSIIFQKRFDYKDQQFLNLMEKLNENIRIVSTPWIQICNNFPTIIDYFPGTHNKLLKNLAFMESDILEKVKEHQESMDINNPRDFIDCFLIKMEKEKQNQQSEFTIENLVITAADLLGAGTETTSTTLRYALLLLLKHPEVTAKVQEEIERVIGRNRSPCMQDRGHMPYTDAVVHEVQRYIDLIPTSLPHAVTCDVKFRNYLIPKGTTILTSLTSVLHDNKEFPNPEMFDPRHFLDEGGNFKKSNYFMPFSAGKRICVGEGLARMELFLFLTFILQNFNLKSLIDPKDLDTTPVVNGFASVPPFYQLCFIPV
Sequence of Human-GLP-1 receptor (P43220 24-463): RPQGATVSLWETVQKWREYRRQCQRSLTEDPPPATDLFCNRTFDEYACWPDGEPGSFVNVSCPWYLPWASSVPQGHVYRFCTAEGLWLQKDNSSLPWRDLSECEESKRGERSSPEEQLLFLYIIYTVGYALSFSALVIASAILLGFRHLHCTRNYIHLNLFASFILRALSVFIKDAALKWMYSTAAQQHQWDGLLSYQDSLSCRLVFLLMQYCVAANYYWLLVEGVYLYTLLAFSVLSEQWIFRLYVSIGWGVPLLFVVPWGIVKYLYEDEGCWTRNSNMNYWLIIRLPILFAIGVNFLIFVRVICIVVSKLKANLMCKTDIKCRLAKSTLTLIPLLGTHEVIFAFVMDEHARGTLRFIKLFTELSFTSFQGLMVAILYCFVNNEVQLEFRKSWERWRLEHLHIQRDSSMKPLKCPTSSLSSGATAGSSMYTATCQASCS

pEC50 [1] | HMS Dog [2] | HMS Human [4] | HMS Cynomolgus monkeys [5] | HMS Rat [7] | pIC50 [8, 9] | pIC50 [8, 10] | SMILES | further results
9.27 |  |  |  |  |  |  | C[C@]1(c2ccc(Cl)cn2)Oc2cccc(C3CCN(Cc4nc5sc(C(=O)O)c(F)c5n4C[C@@H]4CCO4)CC3)c2O1 (single isomer, unassigned) [Compound 001] | 
9.06 | 115.4 mL/min/kg | <17.8 mL/min/kg | <23.0 mL/min/kg | 138.7 mL/min/kg | 4.53 | < 4.30 | C[C@]1(c2ccc(Cl)cn2)Oc2cccc(C3CCN(Cc4nc5sc(C(=O)O)cc5n4C[C@@H]4CCO4)CC3)c2O1 (single isomer, unassigned) [Compound 002] | F % ([3]; IV 1.0 mg/kg, PO 2.0 mg/kg): 35.3%; Cl ([3]; intravenous 1.0 mg/kg): 0.505 mL/min/kg; Vd ([3]; intravenous 1.0 mg/kg): 0.155 L/kg; AUC (PO) ([3]; oral gavage 2.0 mg/kg): 42.966 µM·h; T1/2 (PO) ([3]; oral gavage 2.0 mg/kg): 11.3 h; F % ([6]; IV 1.0 mg/kg, PO 5.0 mg/kg): 27.1%; Cl ([6]; intravenous 1.0 mg/kg): 12.0 mL/min/kg; Vd ([6]; intravenous 1.0 mg/kg): 0.392 L/kg; AUC (PO) ([6]; oral gavage 5.0 mg/kg): 3.439 µM·h; T1/2 (PO) ([6]; oral gavage 5.0 mg/kg): 1.61 h
9.29 | 58.7 mL/min/kg | 19.4 mL/min/kg | 41.6 mL/min/kg | 5.1 mL/min/kg | < 4.30 | < 4.30 | C[C@@]1(c2ccc(Cl)cn2)Oc2cccc(N3CCN(Cc4nc5sc(C(=O)O)cc5n4C[C@H]4CCO4)CC3)c2O1 [Compound 003] | F % ([3]; IV 0.5 mg/kg, PO 10.0 mg/kg): 23.6%; Cl ([3]; intravenous 0.5 mg/kg): 2.85 mL/min/kg; Vd ([3]; intravenous 0.5 mg/kg): 0.489 L/kg; AUC (PO) ([3]; oral gavage 10.0 mg/kg): 10.716 µM·h; T1/2 (PO) ([3]; oral gavage 10.0 mg/kg): 8.52 h
